Data as given in patent US20240226074A1, “CELL-OF-ORIGIN TARGETED DRUG REPURPOSING FOR TRIPLE-NEGATIVE AND INFLAMMATORY BREAST CARCINOMA WITH HDAC AND HSP90 INHIBITORS COMBINED WITH NICLOSAMIDE” (priority 2022, published 2024).

How the values were obtained:
HCC1913 = test: WST cell proliferation assay, HCC1913 cells; conditions: 100 nM, 7 days
Description: (§1) The inhibition of cell proliferation by E, N, T and ENT is measured by WST assay.

MFM223 = test: WST cell proliferation assay, MFM223 cells; conditions: 100 nM, 7 days
Description: as §1

[1] = at clinically recommended doses; cited from earlier work
KPL4 = test: WST cell proliferation assay, KPL4 cells; format: cell-based
SUM149 = test: WST cell proliferation assay, SUM149 cells; format: cell-based
[2] = cited from earlier work; for peak serum concentrations achieved in different clinical trials: human, in vivo; for Cmax: peak serum concentration, clinical trials, read-out: Phase I-II Cmax
IBC03 = test: WST cell proliferation assay, IBC03 cells; format: cell-based
IBC02 = test: WST cell proliferation assay, IBC02 cells; format: cell-based
SUM190 = test: WST cell proliferation assay, SUM190 cells; format: cell-based
HDAC1 = HDAC1 (Homo sapiens, UniProt Q13547); conditions: previously shown [37]; cited from earlier work
Chain of HDAC1 (Q13547 whole entry): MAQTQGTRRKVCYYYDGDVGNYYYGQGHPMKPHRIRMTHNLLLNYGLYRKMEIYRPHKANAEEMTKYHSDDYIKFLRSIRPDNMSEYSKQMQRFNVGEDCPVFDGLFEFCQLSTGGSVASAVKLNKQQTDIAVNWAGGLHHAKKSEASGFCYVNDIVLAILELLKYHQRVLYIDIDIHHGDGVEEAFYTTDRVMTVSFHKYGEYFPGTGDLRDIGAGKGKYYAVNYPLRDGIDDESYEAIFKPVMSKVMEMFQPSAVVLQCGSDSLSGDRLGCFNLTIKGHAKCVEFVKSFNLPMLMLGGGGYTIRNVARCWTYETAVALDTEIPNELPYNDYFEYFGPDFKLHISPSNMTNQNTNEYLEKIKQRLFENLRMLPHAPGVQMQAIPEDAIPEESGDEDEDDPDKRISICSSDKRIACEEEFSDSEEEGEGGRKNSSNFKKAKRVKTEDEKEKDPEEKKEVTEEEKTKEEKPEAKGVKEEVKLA

[3] = single drug 100 nM, Belinostat panel
[4] = single drug 100 nM, Entinostat panel (upper part of Table 6)
[5] = single drug 500 nM, Belinostat panel
[6] = single drug 1000 nM, Belinostat panel
[7] = single drug 200 nM, Belinostat panel
[8] = single drug 200 nM, Entinostat panel
[9] = single drug 150 nM, Entinostat panel

| Structure (SMILES) | side effects [1] | Survival of inflammatory breast cancer cells (percent viability vs DMSO) (KPL4; [3]) | Survival of inflammatory breast cancer cells (percent viability vs DMSO) (KPL4; [4]) | Survival of inflammatory breast cancer cells (percent viability vs DMSO) (SUM149; [3]) | Survival of inflammatory breast cancer cells (percent viability vs DMSO) (SUM149; [4]) | peak serum concentrations achieved in different clinical trials [2] | Cmax [2] | Survival of inflammatory breast cancer cells (percent viability vs DMSO) (IBC03; [3]) | Survival of inflammatory breast cancer cells (percent viability vs DMSO) (IBC03; [4]) | Survival of inflammatory breast cancer cells (percent viability vs DMSO) (IBC02; [3]) | Survival of inflammatory breast cancer cells (percent viability vs DMSO) (IBC02; [4]) | Survival of inflammatory breast cancer cells (percent viability vs DMSO) (SUM190; [3]) | Survival of inflammatory breast cancer cells (percent viability vs DMSO) (SUM190; [4]) | also measured |
| --- | --- | --- | --- | --- | --- | --- | --- | --- | --- | --- | --- | --- | --- | --- |
| O=C(Nc1ccc([N+](=O)[O-])cc1Cl)c1cc(Cl)ccc1O [Niclosamide] | itching, drowsiness, dizziness, and skin rash | 104 | 91 | 74 | 113 | 2 µM | 2 µM | 35 | 46 | 17 | 20 | 133 | 135 | sensitivity of cell line (FIG. 2) (HCC1913): exceptional sensitivity; sensitivity of cell line (FIG. 2) (MFM223): exceptional sensitivity |
| O=C(CCCCCCC(=O)Nc1ccccc1)NO [Vorinostat] | – | – | – | – | – | – | 40 µM | – | – | – | – | – | – | – |
| O=C(/C=C/c1cccc(S(=O)(=O)Nc2ccccc2)c1)NO [Belinostat] | – | – | – | – | – | 200 µM | 200 µM | – | – | – | – | – | – | Survival of inflammatory breast cancer cells (percent viability vs DMSO) (KPL4; [5]): 91; Survival of inflammatory breast cancer cells (percent viability vs DMSO) (KPL4; [6]): 23; Survival of inflammatory breast cancer cells (percent viability vs DMSO) (SUM149; [5]): 71; Survival of inflammatory breast cancer cells (percent viability vs DMSO) (SUM149; [6]): 21; Survival of inflammatory breast cancer cells (percent viability vs DMSO) (IBC03; [5]): 91; Survival of inflammatory breast cancer cells (percent viability vs DMSO) (IBC03; [6]): 45; Survival of inflammatory breast cancer cells (percent viability vs DMSO) (IBC02; single drug 500 nM, Belinostat panel (lower part of Table 6)): 14; Survival of inflammatory breast cancer cells (percent viability vs DMSO) (IBC02; [6]): 0; Survival of inflammatory breast cancer cells (percent viability vs DMSO) (SUM190; [5]): 95; Survival of inflammatory breast cancer cells (percent viability vs DMSO) (SUM190; [6]): 107 |
| CCc1cc(C(N)=O)ccc1-n1nc(C(C)C)c2c(-n3cnc(-c4cnn(C)c4)c3)ccnc21 [Pimitespib] | diarrhea, decreased appetite, malaise, renal impairment, and anemia | 102 | 89 | 111 | 115 | 7 µM | 7 µM | 89 | 89 | 114 | 107 | 112 | 114 | Survival of inflammatory breast cancer cells (percent viability vs DMSO) (KPL4; [7]): 136; Survival of inflammatory breast cancer cells (percent viability vs DMSO) (KPL4; [8]): 118; Survival of inflammatory breast cancer cells (percent viability vs DMSO) (SUM149; [7]): 158; Survival of inflammatory breast cancer cells (percent viability vs DMSO) (SUM149; [8]): 172; Survival of inflammatory breast cancer cells (percent viability vs DMSO) (IBC03; [7]): 81; Survival of inflammatory breast cancer cells (percent viability vs DMSO) (IBC03; [8]): 81; Survival of inflammatory breast cancer cells (percent viability vs DMSO) (IBC02; [7]): 105; Survival of inflammatory breast cancer cells (percent viability vs DMSO) (IBC02; [8]): 114; Survival of inflammatory breast cancer cells (percent viability vs DMSO) (SUM190; [7]): 100; Survival of inflammatory breast cancer cells (percent viability vs DMSO) (SUM190; [8]): 102 |
| Nc1ccccc1NC(=O)c1ccc(CNC(=O)OCc2cccnc2)cc1 [Entinostat] | – | – | 45 | – | 99 | – | – | – | 61 | – | 21 | – | 159 | Survival of inflammatory breast cancer cells (percent viability vs DMSO) (KPL4; [9]): 20; Survival of inflammatory breast cancer cells (percent viability vs DMSO) (SUM149; [9]): 102; Survival of inflammatory breast cancer cells (percent viability vs DMSO) (IBC03; [9]): 35; inhibition of HDAC1 (HDAC1): inhibits; Survival of inflammatory breast cancer cells (percent viability vs DMSO) (IBC02; [9]): 12; Survival of inflammatory breast cancer cells (percent viability vs DMSO) (SUM190; [9]): 223 |
